# Literature values in US5532229A, “Topical administration of vitamin D to mammals” (priority 1994, dated 1996).
# How the values were obtained:
# [1] = generated by ultraviolet exposure, bound to DBP, experimental subjects; cited from earlier work
# [2] = cited from earlier work
smiles,measurement,setting,value
C=C1CC[C@H](O)C/C1=C/C=C1\CCC[C@]2(C)[C@@H]([C@H](C)CCCC(C)C)CC[C@@H]12 [vitamin D3],persistence in circulation,[1],circulate unchanged for a prolonged time
same,solubility in water,[2],not soluble in water
